Where two headings read alike, the source gives them in different places.
How the values were obtained:
[1] = system: MRC5SV2 human fibroblasts; conditions: read-out: MRC-5-Human-Fibroblasts EC50 (32000 >32µM); ref [84]; cited from earlier work
[2] = system: P. falciparum NF54 gametocytes stage IV/V; test: Gametocyte PrestoBlue resazurin assay Mancama; type: cell-based; conditions: Plasmodium falciparum, NF54; 5µM; read-out: NF54 gametocyte Late Stage IV/V Resazurin %inhibition
T. b. brucei Squib 427 = conditions: ref [84]; read-out: Trypansoma brucei brucei Squib 427 IC50; cited from earlier work
S. mansoni adult worms = S. mansoni adult worms LSHTM Bickle; type: cell-based, Schistosoma mansoni; conditions: 15 μM
Description: Columns DI-DJ, DL: Bickle group. (columns DI and DL data presented first in this paper, column DJ partially published in ref [95].). […] Male CD1 mice (aged 5–6 weeks) were bred on site using SPF conditions with access of food and water ab libitum. Worms were obtained by portal perfusion of CD1 mice (Charles River, UK) 6 weeks post-infection and 3 worm pairs added to the wells of 48 well plates (Nunc, UK) in 1 ml complete DMEM medium supplemented with 10% fetal calf serum (Gibco, UK), 2 mM L-glutamine, 100 U/ml penicillin, 100 µg/ml streptomycin (cDMEM). A primary adult worm screen was performed in which 400 MMV compounds were tested at 15 µM in 0.15% DMSO. Negative controls contained worms cultured in cDMEM alone and in cDMEM with 0.15% DMSO. Positive control wells contained worms cultured in Praziquantel (Sigma-Aldrich, UK) at 10 µM. Cultures were incubated at 37 °C and 5% CO2. Effects were assessed on day 5 of culture using an inverted microscope (Leitz Diavert Wetzlar, Germany). Any compounds producing complete immobility or ≥ 70% worm motility inhibition plus severe morphological damage were considered hits in the primary screen. […] IC50 for the compounds was calculated using Microsoft XLfit version 5.1.0.0 (2006-2008 ID Business Solutions Ltd). In vitro screening of S. mansoni schistosomula run at LSHTM (London): Schistosomula were prepared as previously reported with the modification of using a 45% and 70% Percoll gradient and the cercarial heads recovered from the 70% layer. All centrifugation steps were done at 350 xg. An appropriate volume of drug Stock was pre-added to wells in 96-well microtiter culture plates (Nunc, UK) containing 100 µl complete M169 (cM169). The wells were then topped up with another 100 µl of cM169 containing 100 schistosomula to give final concentrations of 15 µM of compound per well. Negative controls contained larvae cultured in cM169 alone and in cM169 with 0.5% DMSO. Positive control wells contained schistosomula cultured in Praziquantel (Sigma-Aldrich, UK) at 10 µM. Cultures were incubated at 37 °C and 5% CO2. Effects were assessed on day 3 of culture using an inverted microscope (Leitz Diavert Wetzlar, Germany). Any compounds producing complete immobility or ≥ 70% motility inhibition plus severe morphological damage were considered hits in the larval screen.

[3] = system: primary human hepatocytes; test: MPCC hepatotoxicity (albumin, urea, morphology); type: cell-based; conditions: 10µM
[4] = system: P. berghei liver stage in HepG2-A16-CD81EGFP; parameters: method as in ref [58, 65] (a number printed in a supplementary file, which may have a reference list of its own: not looked up in the article's list); conditions: ref [58, 65], cited from earlier work; for P. berghei Liver stage activity summary: 50uM; for P. berghei Liver stage infection rate rep1 (luciferase) / P. berghei Liver stage infection rate rep2 (luciferase): 50µM
[5] = system: Mycobacterium tuberculosis mc26220 replicating; test: microbe, parasite or virus in culture; type: cell-based
[6] = system: Naegleria fowleri trophozoites; test: Naegleria fowleri CellTiter-Glo; type: cell-based; conditions: 1µM
In short: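 Growth inhibition of Naegleria fowleri trophozoites in vitro, read as cellular ATP by CellTiter-Glo 2.0 luminescence in lysed cells, output in relative light units.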

P. falciparum 3D7 or K1 = test: Asexual Blood Stage Imaging Assay (DAPI) V. Avery; type: cell-based; conditions: Plasmodium falciparum; 5µM; read-out: P. falciparum 3D7 asexual blood stage % inhibition (Image)
T. equi (USDA strain) = test: T. equi fluorescence-based growth assay; type: cell-based; conditions: Theileria equi
B. caballi (USDA) = test: B. caballi fluorescence-based growth assay; type: cell-based; conditions: Babesia caballi
[7] = system: P. falciparum in vitro translation; parameters: method as in ref [19] (a number printed in a supplementary file, which may have a reference list of its own: not looked up in the article's list); conditions: 1 µM; ref [19]; cited from earlier work
[8] = system: P. falciparum NF54 gametocytes; parameters: method as in ref [72] (a number printed in a supplementary file, which may have a reference list of its own: not looked up in the article's list); conditions: 10µM; ref [72]; cited from earlier work
[9] = system: HIV-1 JR-FL or HIV-1 NL4-3 pseudoviruses; test: HIV-1 pseudovirus infection luciferase; type: cell-based; conditions: Human immunodeficiency virus 1, HXB2 / NL43, read-out: HIV HXB2 % inhibition rep2 in U87 Luc
Aedes aegypti = Aedes aegypti Scynexis; conditions: 10µM
Description: Supplement ppat.1005763.s002.xlsx, sheet "S1 Table Heat Map" | column: Aedes aegypti % dead 48hr 10 µM Synexis

Brugia malayi = Brugia malayi Scynexis; type: cell-based; conditions: 10µM
Description: Supplement ppat.1005763.s002.xlsx, sheet "S1 Table Heat Map" | column: Brugia malayi 5d % dead at 10µM Scynexis

[10] = system: P. falciparum NF54Pfs16 gametocytes stage I-III; conditions: ref [61], cited from earlier work
P. falciparum Dd2 = P. falciparum Dd2 asexual blood stages Scynexis; type: cell-based; conditions: Plasmodium falciparum

SMILES	EC50 [1] [µM]	inhibition at 5 µM [2] [%]	Schistosoma mansoni adult worm primary assay % Motility Reduction (Hit ≥ 70%) (S. mansoni adult worms) [%]	Human hepatocyte Urea synthesis, 1.0 normal [3]	Human hepatocyte albumin synthesis, 1.0 normal [3]	P. berghei Liver stage infection rate rep1 (luciferase) [4] [%]	P. berghei Liver stage infection rate rep2 (luciferase) [4] [%]	inhibition at 25 µM [5] [%]	Naegleria fowleri % growth [6] [%]	inhibition at 5 µM (P. falciparum 3D7 or K1) [%]	EC50 (T. equi (USDA strain)) [µM]	EC50 (B. caballi (USDA)) [µM]	Translation Inhibitors (nl = 1.0, in vitro translation with P. falciparum lysate) [7]	gametocyte stage IV-V SYBR Green % inhibition [8] [%]	inhibition at 5 µM [9] [%]	Aedes aegypti % dead 48hr (Aedes aegypti) [%]	Brugia malayi 5d % dead (Brugia malayi) [%]	gametocyte early stage (I-III) luciferase % inhibition ([10]; 0.5µM) [%]	gametocyte early stage (I-III) luciferase % inhibition ([10]; 2.5µM) [%]	gametocyte early stage (I-III) luciferase % inhibition ([10]; 5µM) [%]	also measured
CCN(CC)c1cc(C)c2cc(NC(=O)c3cccc(OC)c3)ccc2n1 [MMV000498]	15.3	70	0	0.65	0.57	-3.74	-5.7	19	80	97	0.46	9.33	0.87	60	55	19	13	-15	-18	-3.81	IC50 (T. b. brucei Squib 427): 14.3 µM; P. berghei Liver stage activity summary [4]: tox (tox (toxic) if >50% HepG2); inhibition at 10 µM (P. falciparum Dd2): 8%
CCN1CCN(c2cc(C)c3cc(NC(=O)c4ccc(OC)c(OC)c4)ccc3n2)CC1 [MMV019074]	5.46	64	25	0.58	0.51	-3.74	-4	15	88	99	0.33	5.93	0.94	47	-69	-20	-2	-13	-14	-6.56	IC50 (T. b. brucei Squib 427): 4.78 µM; P. berghei Liver stage activity summary [4]: tox (tox (toxic) if >50% HepG2); inhibition at 10 µM (P. falciparum Dd2): 80%
CCOC(=O)c1cnc2ccc(OC)cc2c1NCc1ccccc1 [MMV665813]	> 32	0	0	0.81	0.93	-3.22	-4	40	91	97	14.1	5.9	1.47	61	-1.56	-2	12	-13	-10	-8	IC50 (T. b. brucei Squib 427): 14.9 µM; P. berghei Liver stage activity summary [4]: tox (tox (toxic) if >50% HepG2); inhibition at 10 µM (P. falciparum Dd2): 55%
COc1cc2cc(C(=O)Nc3ccccc3)c(N)nc2cc1OC [MMV006767]	> 32	0	0	1.00	0.82	27	61	17	95	99	3.04	6.22	0.75	60	51	-3	18	-7	7.41	19	inhibition at 10 µM (P. falciparum Dd2): 40%
